One test relates to K562. Briefly: Cytotoxicity on K562 cancer cell line. The test is classed as cell-based. As to conditions: Homo sapiens; K562 chronic myelogenous leukemia; 96 h; 0.01-100 μM. On the procedure: (§1) The effect of the compounds described herein on tumor cells was determined by the assay described by Latham et al., Oncogene 12:827-837 (1996). Tumor cells K562 (chronic myelogenous leukemia; leukemia cell line +ve for Bcr-Abl) or DU145 (prostate cancer) were plated in 12-well dishes at a cell density of 2.5×10^4 cells per well. The plated cells were treated 24 h. later with a DMSO solution of a compound as described herein at multiple concentrations ranging from 0.01 μM to 100 μM. The plates were examined 96 h. later under an inverted microscope, Olympus CK-2 using a 10× objective, and compound activity was noted by physical observation. When necessary, the total number of viable cells was determined by trypsinizing the wells and counting the number of viable cells, as determined by trypan blue exclusion, using a hemacytometer.

A further test relates to DU145. Nature of the test: Cytotoxicity on DU145 cancer cell line. The class given is cell-based. The note with it: Homo sapiens, DU-145; DU145 prostate cancer; 96 h; 0.01-100 μM. On the procedure:
as §1

pIC50: −log10 of the molar value.

Turning to `Cn1ccc(Nc2nc(Nc3ccc4ncccc4c3)ncc2/C=C/S(=O)(=O)c2ccc(F)cc2F)n1` [Compound 15u, (E)-5-{2-[(2,4-Difluorophenyl)sulfonyl]vinyl}-N^4-(1-methyl-1H-pyrazol-3-yl)-N^2-(quinolin-6-yl)pyrimidine-2,4-diamine], the pIC50 with K562 and in the test with DU145 was 4.60 to 6.00 each time.
`CNc1nc(Nc2ccc3cc[nH]c3c2)ncc1/C=C/S(=O)(=O)c1ccc(F)cc1F` [Compound 15c, 5-{2-[2,4-(Difluorophenyl)sulfonyl]vinyl}-N^2-(1H-indol-6-yl)-N^4-methylpyrimidine-2,4-diamine]: the negative-log IC50 (pIC50) in the test with K562 and in the test with DU145 was 4.60 to 6.00 each time.
Consider `CNc1nc(Nc2ccc(N3CCOCC3)cc2)ncc1/C=C/S(=O)(=O)c1ccc(F)cc1F` [Compound 15e, (E)-5-{2-[(2,4-Difluorophenyl)sulfonyl]vinyl}-N^4-methyl-N^2-(4-morpholinophenyl)pyrimidine-2,4-diamine], for which the pIC50 in the test on K562 and with DU145 was 4.00 to 4.30 throughout.
As to `CN1CCC(c2ccc(Nc3ncc(/C=C/C#N)c(NC4CCCC4)n3)cc2)CC1` [Compound 8l, 3-{4-Cyclopentylamino-2-[4-(1-methylpiperidin-4-yl)phenylamino]pyrimidin-5-yl}acrylonitrile], the negative-log IC50 (pIC50) in the test on K562 and in the test on DU145 was 4.60 to 6.00 each time.
Turning to `N#C/C=C/c1cnc(Nc2ccc(N3CCOCC3)cc2)nc1NC1CCCC1` [Compound 8j, 3-{4-Cyclopentylamino-2-[(4-morpholin-4-yl)phenylamino]pyrimidin-5-yl}acrylonitrile], the negative-log IC50 (pIC50) in the test with K562 and in the test with DU145 was 4.60 to 6.00 throughout.
Consider `CN1CCN(c2ccc(Nc3ncc(/C=C/C#N)c(NC4CC4)n3)cc2)CC1` [Compound 8g, 3-{4-Cyclopropylamino-2-[4-(4-methylpiperazin-1-yl)phenylamino]pyrimidin-5-yl}acrylonitrile], for which the negative-log IC50 (pIC50) in the test on K562 and in the test on DU145 was over 6.00 each time.
As for `N#C/C=C/c1cnc(Nc2ccc3[nH]ccc3c2)nc1NCC1CC1` [Compound 8u, 3-{4-[(Cyclopropylmethyl)amino]-2-[(1H-indol-5-yl)amino]pyrimidin-5-yl)acrylonitrile], the pIC50 in the test on K562 and in the test on DU145 was over 6.00 in each case.
In the case of `CNc1nc(Nc2ccc(N3CCN(C)CC3)cc2)ncc1/C=C/C#N` [Compound 8b, 3-{4-Methylamino-2-[4-(4-methylpiperazin-1-yl)-phenylamino]pyrimidin-5-yl}acrylonitrile], the negative logarithm of the IC50 (pIC50) (as a rule, the negative decadic logarithm of the IC50, by convention in mol/L) in the test on K562 was over 6.00; in the test with DU145, 4.60 to 6.00.
The corresponding values for `CN1CCN(c2ccc(Nc3ncc(/C=C/S(=O)(=O)c4ccc(F)cc4F)c(Nc4ccn(C)n4)n3)cc2)CC1` [Compound 15r, (E)-5-{2-[(2,4-Difluorophenyl)sulfonyl]vinyl}-N^4-(1-methyl-1H-pyrazol-3-yl)-N^2-[4-(4-methylpiperazin-1-yl)phenyl]pyrimidine-2,4-diamine] are 4.60 to 6.00 and 4.60 to 6.00.
The corresponding values for `COc1ccc(S(=O)(=O)/C=C/c2cnc(Nc3ccc(N4CCN(C)CC4)cc3)nc2NC2CCCC2)cc1` [Compound 15j, (E)-N^4-Cyclopentyl-5-{2-[(4-methoxyphenyl)sulfonyl]vinyl}-N^2-[4-(4-methylpiperazin-1-yl)phenyl]pyrimidine-2,4-diamine] are 4.60 to 6.00 and 4.60 to 6.00.
The corresponding values for `COc1ccc(Nc2ncc(/C=C/S(=O)(=O)c3ccc(OC)cc3)c(NC3CCCC3)n2)cc1` [Compound 15m, (E)-N^4-Cyclopentyl-N^2-(4-methoxyphenyl)-5-{2-[(4-methoxyphenyl)sulfonyl]vinyl}pyrimidine-2,4-diamine] are 4.60 to 6.00 and 4.60 to 6.00.
As for `O=S(=O)(/C=C/c1cnc(N2CCOCC2)nc1NC1CCCC1)c1ccc(F)cc1N1CCOCC1` [Compound 15p, (E)-N-Cyclopentyl-5-{2-[(4-fluoro-2-morpholinophenyl)sulfonyl]vinyl}-2-morpholinopyrimidin-4-amine], the results for the pIC50 in the test on K562 and in the test with DU145 were 4.00 to 4.30 and 4.60 to 6.00, respectively.
For `CNc1nc(Nc2ccc(N3CCN(C)CC3)cc2)ncc1/C=C/S(=O)(=O)c1ccc(F)cc1F` [Compound 15d, (E)-5-{2-[(2,4-Difluorophenyl)sulfonyl]vinyl}-N^4-methyl-N^2-[4-(4-methylpiperazin-1-yl)phenyl]pyrimidine-2,4-diamine], in that order: 4.60 to 6.00 and 4.60 to 6.00.
For `CCNc1nc(Nc2ccc(N3CCN(C)CC3)cc2)ncc1/C=C/C#N` [Compound 8c, 3-{4-Ethylamino-2-[4-(4-methylpiperazin-1-yl)phenylamino]pyrimidin-5-yl}acrylonitrile], in that order: over 6.00 and over 6.00.
As to `CN1CCN(c2ccc(Nc3ncc(/C=C/S(=O)(=O)c4ccc(F)cc4F)c(NC4CCCC4)n3)cc2)CC1` [Compound 15b, N^4-Cyclopentyl-5-{2-[(2,4-difluorophenyl)sulfonyl]vinyl}-N^2-[4-(4-methylpiperazin-1-yl)phenyl]pyrimidine-2,4-diamine], the pIC50 with K562 and in the test on DU145 was 4.60 to 6.00 in each case.
In the case of `N#C/C=C/c1cnc(Nc2ccc(N3CCOCC3)cc2)nc1NCC1CC1` [Compound 8r, 3-{4-[N-(Cyclopropylmethyl)amino]-2-[4-(morpholin-4-yl)phenylamino]pyrimidin-5-yl}acrylonitrile], the pIC50 in the test on K562 and with DU145 was over 6.00 each time.
As to `CN1CCN(c2ccc(Nc3ncc(/C=C/C#N)c(NC4CCCC4)n3)nc2)CC1` [Compound 8q, 3-(4-(Cyclopentylamino)-2-((5-(4-methylpiperazin-1-yl)pyridin-2-yl)amino)pyrimidin-5-yl)acrylonitrile], the pIC50 in the test on K562 and in the test on DU145 was over 6.00 in each case.
For `CCCNc1nc(Nc2ccc(N3CCN(C)CC3)cc2)ncc1/C=C/C#N` [Compound 8d, 3-{4-Propylamino-2-[4-(4-methylpiperazin-1-yl)phenylamino]pyrimidin-5-yl}acrylonitrile], the pIC50 with K562 and with DU145 was over 6.00 in each case.
In the case of `CCN(C)c1nc(Nc2ccc(N3CCN(C)CC3)cc2)ncc1/C=C/C#N` [Compound 8v, 3-{4-(N-Ethyl-N-methylamino)-2-[4-(4-methylpiperazin-1-yl)phenylamino]pyrimidin-5-yl}acrylonitrile], the negative-log IC50 (pIC50) with K562 and with DU145 was 4.30 to 4.60 throughout.
Consider `CN1CCN(c2ccc(Nc3ncc(/C=C/C#N)c(Nc4ccn(C)n4)n3)cc2)CC1` [Compound 8aa, (E)-3-(4-[(1-Methyl-1H-pyrazol-3-yl)amino]-2-{[4-(4-methylpiperazin-1-yl)phenyl]amino}pyrimidin-5-yl)acrylonitrile], for which the pIC50 in the test on K562 and with DU145 was 4.60 to 6.00 in each case.
